In patent publication US8653104B2, “PTEN inhibitor or Maxi-K channels opener” (Otsuka Pharmaceuticals Co., Ltd., priority 2003, dated 2014):
Each block holds one molecule with its values, some of them ahead of it.

Legend:
Maxi-K channels = biological target: T1, Maxi-K channels (Homo sapiens, UniProt Q12791); experiment: Whole-cell K+ current recording (patch clamp) in SK-N-SH cells; format: cell-based
T1 construct: endogenous in cells; host or cells: SK-N-SH (KCLB 30011) human neuroblastoma cells
T1 sequence (Q12791 whole entry): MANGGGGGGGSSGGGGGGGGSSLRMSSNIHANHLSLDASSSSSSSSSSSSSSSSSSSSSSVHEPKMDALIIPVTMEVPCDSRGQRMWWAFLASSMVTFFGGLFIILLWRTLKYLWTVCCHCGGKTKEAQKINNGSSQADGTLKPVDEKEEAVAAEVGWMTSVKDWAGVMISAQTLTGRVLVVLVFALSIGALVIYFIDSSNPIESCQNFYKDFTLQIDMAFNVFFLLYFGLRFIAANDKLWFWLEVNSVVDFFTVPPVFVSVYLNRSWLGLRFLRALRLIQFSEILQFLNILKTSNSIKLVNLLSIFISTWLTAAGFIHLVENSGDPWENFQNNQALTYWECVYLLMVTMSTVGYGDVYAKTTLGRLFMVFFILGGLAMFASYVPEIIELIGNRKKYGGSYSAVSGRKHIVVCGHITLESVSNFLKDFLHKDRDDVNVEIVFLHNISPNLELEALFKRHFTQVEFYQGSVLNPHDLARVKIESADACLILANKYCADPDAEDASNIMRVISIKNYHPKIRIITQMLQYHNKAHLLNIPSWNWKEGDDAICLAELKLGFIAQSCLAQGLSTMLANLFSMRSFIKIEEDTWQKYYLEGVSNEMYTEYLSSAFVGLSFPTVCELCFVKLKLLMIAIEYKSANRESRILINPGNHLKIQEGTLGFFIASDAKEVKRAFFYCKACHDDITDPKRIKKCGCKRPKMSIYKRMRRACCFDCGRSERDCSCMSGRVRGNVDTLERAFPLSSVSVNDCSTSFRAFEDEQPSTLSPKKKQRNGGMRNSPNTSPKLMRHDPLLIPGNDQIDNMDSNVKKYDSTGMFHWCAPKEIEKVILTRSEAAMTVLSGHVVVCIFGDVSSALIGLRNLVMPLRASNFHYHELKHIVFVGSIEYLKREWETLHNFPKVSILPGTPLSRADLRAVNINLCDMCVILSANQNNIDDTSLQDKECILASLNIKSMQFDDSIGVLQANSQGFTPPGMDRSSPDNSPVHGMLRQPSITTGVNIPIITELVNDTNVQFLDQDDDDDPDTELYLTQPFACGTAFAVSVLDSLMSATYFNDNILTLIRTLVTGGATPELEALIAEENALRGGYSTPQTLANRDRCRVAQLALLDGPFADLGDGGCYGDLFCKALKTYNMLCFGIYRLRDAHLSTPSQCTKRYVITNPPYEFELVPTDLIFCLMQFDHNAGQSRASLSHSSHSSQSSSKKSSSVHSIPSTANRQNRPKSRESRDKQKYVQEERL
Procedure: (§1) Cell cultures: SK-N-SH (KCLB 30011, human brain neuroblastoma) cells were cultured in Eagle's minimum essential medium (MEM) with 2 mM L-glutamine and 1.0 mM sodium pyruvate supplemented with 10% heat-inactivated fetal bovine serum. Cells were grown to confluence at 37° C. in 5% CO2 and used for experiments at no greater than passage 20.
Recording of the whole-cell K^+ current: The experiments were performed in a small bath (0.5 ml) mounted on the stage of an inverted microscope (Nikon model TE300, Tokyo, Japan) perfused continuously at a flow rate of 1 ml/min. Using the whole-cell configuration of the patch clamp technique, the K^+ currents were recorded at room temperature (20˜22° C.) with an Axopatch-200B patch clamp amplifier (Axon Instruments, Foster City, Calif.). Currents were sampled at 1 to 10 kHz after anti-alias filtering at 0.5 to 5 kHz. Data acquisition and command potentials were controlled by pClamp 6.0.3 software (Axon Instruments, Foster City, Calif.). To ensure the voltage clamp quality, electrode resistance was kept below 3 MΩ. Junction potentials were zeroed with the electrode in the standard bath solution. Gigaohm seal formation was achieved by suction and, after establishing the whole cell configuration, the capacitive transients elicited by symmetrical 10 mV voltage clamp steps from −80 mV were recorded at 50 kHz for calculation of cell capacitance. The normal bath solution for the whole-cell recordings was: NaCl 130 mM, KCl 5 mM, MgCl2 1.2 mM, CaCl2 1.8 mM, HEPES 10 mM, glucose 5.2 mM and the pH was adjusted to 7.4 with NaOH. Pipettes were filled with KCl 140 mM, MgCl2 0.5 mM, CaCl2 0.1 mM, ethylenebis(oxonitrilo) tetra-acetic acid (EGTA) 0.09 mM, HEPES 10 mM, glucose 10 mM and the pH was adjusted to 7.4 with KOH.
After establishment of whole-cell recordings and collecting control recordings for approximately 5 minutes until the current elicited by depolarization stabilized, cilostazol was applied to the bath. In the experiments, using glibenclamide or iberiotoxin, cilostazol was applied to the bath about 20 minutes after administering glibenclamide or iberiotoxin.

PTEN = experiment: Suppression of TNF-α-stimulated increase in PTEN phosphorylation level, Western blot in SK-N-SH cells; format: cell-based, human; details: cilostazol 1, 10 and 100 μM given 3 hours before TNF-α (50 ng/ml, one hour)
Procedure: as §1
Preparation of TNF-α solution: TNF-α (Upstate Biotechnology, Inc., Lake Placid, N.Y.) was dissolved in the phosphate buffered saline as a 10 μg/ml stock solution.
Western blot analysis: The confluent cells received MEM medium with 1% FBS plus cilostazol 3 hours prior to stimulation with TNF-α and then were exposed to TNF-α for one hour.
The cells were lysed in lysis buffer containing 50 mM Tris-Cl (pH 8.0), 150 mM NaCl, 0.02% sodium azide, 100 μg/ml phenylmethylsulfonyl fluoride, 1 μg/ml aprotinin and 1% Triton X-100. […] The signals of the bands were quantified using a GS-710 Calibrated imaging Densitomerter (Bio-Rad Laboratories, Hercules, Calif.). The results were expressed as a relative density. […]
Statistical analysis: The results are expressed as means±SEM. Statistical differences between groups were determined by Student's t-test. p<0.05 was considered to be significant.

Molecule: iberiotoxin
block of the cilostazol-increased K+ current (Maxi-K channels; iberiotoxin 100 nM added to the bath): reversibly blocked

Molecule: O=C1CCc2cc(OCCCCc3nnnn3C3CCCCC3)ccc2N1 [cilostazol, 6-[4-(1-cyclohexyl-1H-tetrazol-5-yl)butoxy]-3,4-dihydro-carbostyril]
TNF-α-stimulated increased PTEN phosphorylation level (PTEN): concentration-dependently suppressed
Maxi-K channel-mediated currents in co-existence of glibenclamide (Maxi-K channels; cilostazol applied about 20 minutes after glibenclamide): increase in maxi-K channel-medicated currents was given
whole-cell calcium activated K+ current (Maxi-K channels; cilostazol applied to the bath alone): significantly increased
K+ current when added together with iberiotoxin (Maxi-K channels; cilostazol together with iberiotoxin, compared with iberiotoxin alone): increase of the current was rather less than iberiotoxin alone

block of the cilostazol-increased K+ current (Maxi-K channels; glibenclamide 10 μM added to the bath): not
Maxi-K channel-mediated currents, blocker alone (Maxi-K channels; glibenclamide alone): could not increase
Molecule: COc1ccc(Cl)cc1C(=O)NCCc1ccc(S(=O)(=O)NC(=O)NC2CCCCC2)cc1 [glibenclamide, 5-chloro-N-[2-[4-[[[(cyclohexyl-amino)carbonyl]amino]sulfonyl]phenyl]ethyl]-2-methoxy-benzamide]
